Measured values: patent US10421769B2, “Anticancer property studies of chiral palladium N-heterocyclic carbene complexes and process for preparation thereof” (Indian Institute of Technology Bombay, priority 2017, dated 2019)
Like-named read-outs stand apart in the source and are kept apart here.

Assays:
[1] = test system: HeLa cells; conditions: one cell cycle, SRB, Ghosh et al. JACS 2007, read-out: HeLa (IC50 value), prior art (a); cited from earlier work
[2] = test system: HeLa cells; assay: Sulforhodamine B assay, proliferation of HeLa cells; format: cell-based, human; conditions: HeLa cervical cancer cells, 24 h, SRB
Experimental: (§1) The present invention further provides a Sulforhodamine B assay method for investigating the anti-cancer efficacies of the compounds of the present Pd—NHC series on MCF-7, HeLa, A549, B16-F10 and EMT6/AR1 cancer cell lines and also for a comparative study on normal skin cell line L929 and normal epithelial breast cells MCF10A. The said Sulforhodamine B assay is conducted as per reported method (Skehan et al., J. Natl. Cancer Inst. 1990, 82, 1107).
(§2) Experiment: The anti-proliferative activity of the present palladium N-heterocyclic carbene complexes on two different cancer cell lines MCF-7 and HeLa is tested using Sulforhodamine B assay to reveal their anti-tumor properties. The evaluation of growth inhibition of these complexes is done from their IC50 values for the inhibition of cell growth. The IC50 values are compared with Cisplatin to determine any increase in efficacy.
The seeded cells in 96-well plates are incubated with the complex for 24 h and the assay is performed.
(§3) The data obtained is graphically represented in accompanying FIG. 2.

[3] = test system: HCT 116 cells; conditions: HCT 116, one cell cycle, SRB, Ghosh et al. JACS 2007; read-out: HCT-116 (IC50 value), prior art (a); cited from earlier work
[4] = test system: MCF-7 cells; conditions: MCF-7, one cell cycle, SRB, Ghosh et al. JACS 2007; read-out: MCF-7 (IC50 value), prior art (a); cited from earlier work
[5] = test system: MCF-7 cells; assay: Sulforhodamine B assay, proliferation of MCF-7 cells; format: cell-based, human; conditions: MCF-7 breast cancer cells, one cell cycle (48 h), SRB
Experimental: as §1, §2
Method: The effects of present series of palladium N-heterocyclic carbene complexes, such as compounds (1S,2S,5R)-(1-3)b and (1R,2R,5S)-(1-3)b; (1S,2S,5R)-(1, 3)c and (1R,2R,5S)-(1, 3)c on the proliferation of MCF-7 cells after one cell cycle are determined by Sulforhodamine B assay. In particular, 1×10^5 cells/mL are seeded in each well in 96-well plates for 24 h and then incubated without or with different concentrations of these complexes at 37° C. for one cell cycle (48 h). After incubation of cells with the complexes for one cell cycle, cell growth is stopped by the addition of 50% trichloroacetic acid and stained with 0.4% sulforhodamine B dissolved in 1% acetic acid. Unbound dye is removed by washing with 1% acetic acid, and the protein content is determined by measuring absorbance at 520 nm in a Bio-Rad model 680 microplate reader after extracting with 10 mM tris base. IC50 value is calculated as the concentration of the complex that inhibited the proliferation of cells by 50% relative to the untreated control cells. The anticancer activities of the present Pd—NHC compounds are graphically represented in accompanying FIG. 1.
as §3

[6] = test system: MCF-7 cells; assay: Live dead assay by flow cytometry using propidium iodide; format: cell-based, human; conditions: MCF-7, 4 μM, 48 h
Experimental: MCF-7 cells (5 mL) were seeded in 60 mm cell culture dishes at a density of 1.5×10^5 cells/mL. Cells were incubated with 4 and 8 μM (1R,2R,5S)-1c for 48 h for live dead assay. After the required incubation, cells were processed and analyzed by flow cytometry. Percentage of live and dead MCF-7 cells in the absence and presence of 4 and 8 μM (1R,2R,5S)-1c and 4 μM cisplatin was determined by flow cytometry using propidium iodide (PI).

[7] = test system: HCT 116 cell lines; conditions: HCT 116, MTT, 72 hours, Haque et al. Metallomics 2013; read-out: HCT-116 (IC50 value), prior art (b); cited from earlier work
[8] = test system: intracellular ROS in MCF-7 cells; assay: Reactive oxygen species (ROS) assay using H2DCFDA, flow cytometry; format: cell-based, human; conditions: MCF-7, 30 μM, 24 h, positive control
Experimental: Experiment: Reactive oxygen species (ROS) production in cells when treated with (1R,2R,5S)-1c, was estimated by ROS assay using 2′,7′-dichlorodihydrofluorescein diacetate (H2DCFDA). MCF-7 cells (5 mL) were seeded in 60 mm cell culture dishes at a density of 1.5×10^5 cells/mL. After cell attachment, they were incubated with 4 and 8 μM (1R,2R,5S)-1c for 24 h. Cells treated with 30 μM hydrogen peroxide was used as a positive control. Following 24 h of incubation, the cells were processed and analyzed using flow cytometry. The percentage of DCFH-DA positive MCF-7 cells in the absence and presence 4 and 8 μM (1R,2R,5S)-1c was determined by flow cytometry. 30 μM H2O2 was used as a positive control. Data are average of three independent set of experiments and ±indicates S.D.

N.N.[Cl][Pt][Cl] [cisplatin, cis-diammine-dichloroplatinum (II), reference compound]
IC50 [1]: 8 µM | IC50 [2]: 8.5 ± 0.7 µM | IC50 [3]: 16 µM | IC50 [4]: 15 µM | IC50 ([5]; read-out: IC50 (μM), MCF-7): 14.9 ± 0.4 µM | Dead % [6]: 8 ± 2% | Live % [6]: 93 ± 4%

trans-[1-(1S)-menthyl-4-(ethyl)-1,2,4-triazol-5-ylidene]2PdBr2 [(1S,2S,5R)-1b]
IC50 ([5]; read-out: IC50 (μM), MCF-7): 2.2 ± 0.1 µM

trans-[1-(1S)-menthyl-4-(benzyl)-1,2,4-triazol-5-ylidene]2Pd(OCOCF3)2 [(1S,2S,5R)-3c]
IC50 ([5]; read-out: IC50 (μM), MCF-7): > 10 µM

CCCCN1C=CN(Cc2ccccc2)[CH]1[Pd]([Cl])([Cl])[CH]1N(CCCC)C=CN1Cc1ccccc1 (stereo not shown) [Compound 9]
IC50 [7]: 6.6 µM

trans-[1-(1R)-menthyl-4-(benzyl)-1,2,4-triazol-5-ylidene]2PdBr2 [(1R,2R,5S)-3b]
IC50 ([5]; read-out: IC50 (μM), MCF-7): > 10 µM

trans-[1-(1S)-menthyl-4-(benzyl)-1,2,4-triazol-5-ylidene]2PdBr2 [(1S,2S,5R)-3b]
IC50 ([5]; read-out: IC50 (μM), MCF-7): > 10 µM

C=CCN1C=CN(CCCC)[CH]1[Pd]([Cl])([Cl])[CH]1N(CC=C)C=CN1CCCC (stereo not shown) [Compound 8]
IC50 [7]: 26.5 µM

OO [Compound H2O2, hydrogen peroxide, reference compound]
% of DCFH-DA positive cells [8]: 72 ± 4%

trans-[1-(1R)-menthyl-4-(benzyl)-1,2,4-triazol-5-ylidene]2Pd(OCOCF3)2 [(1R,2R,5S)-3c]
IC50 ([5]; read-out: IC50 (μM), MCF-7): > 10 µM

trans-[1-(1R)-menthyl-4-(ethyl)-1,2,4-triazol-5-ylidene]2PdBr2 [(1R,2R,5S)-1b]
IC50 ([5]; read-out: IC50 (μM), MCF-7): 2.3 ± 1 µM

trans-[1-(1R)-menthyl-4-(allyl)-1,2,4-triazol-5-ylidene]2PdBr2 [(1R,2R,5S)-2b]
IC50 ([5]; read-out: IC50 (μM), MCF-7): ~10 µM

trans-[1-(1S)-menthyl-4-(ethyl)-1,2,4-triazol-5-ylidene]2Pd(OCOCF3)2 [(1S,2S,5R)-1c]
IC50 ([2]; listed as drawing 40): 2.6 ± 1.6 µM | IC50 ([2]; listed as drawing 47): 2.6 ± 1.6 µM | IC50 ([5]; read-out: IC50 (μM), MCF-7): 0.7 ± 0.005 µM | IC50 ([5]; unit nM printed in cell or sentence, read-out: IC50, MCF-7 (values given in nM)): 0.7 ± 0.005 µM

trans-[1-(1S)-menthyl-4-(allyl)-1,2,4-triazol-5-ylidene]2PdBr2 [(1S,2S,5R)-2b]
IC50 ([5]; read-out: IC50 (μM), MCF-7): ~10 µM
